# In PubChem BioAssay AID1919017 (Molecular Pharmacology Branch, DTP, NCI, 2023):
# Tested on: SW1271 complex spheroids with HUVEC/MSC, growth, % test/control
# Assay: Anticancer human tumor SW1271 cell line growth inhibition [AhR];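 note: spheroids exposed to agents for 7 days before readout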
# Conditions: for IC50: curve of first compound; for viability, T/C: stronger effect = lower value
# Summary of the method: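 Agents were dosed in half-log steps down from roughly clinical Cmax, or from 10 microM where Cmax was unknown, alone and with AhR antagonists. Read-out: percent test/control growth of tumor spheroids containing HUVEC and MSC stromal cells.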
# [1] = second compound 0.1 µM, first compound 0.000949 µM
# [2] = second compound 0.1 µM, first compound 0.003 µM
# [3] = second compound 0.1 µM, first compound 0.00949 µM
# [4] = second compound 0.1 µM, first compound 0.03 µM
# [5] = second compound 0.1 µM, first compound 0.0949 µM
# [6] = second compound 0.1 µM, first compound 0.3 µM
# [7] = second compound 0.316 µM, first compound 0.000949 µM
# [8] = second compound 0.316 µM, first compound 0.003 µM
# [9] = second compound 0.316 µM, first compound 0.00949 µM
# [10] = second compound 0.316 µM, first compound 0.03 µM
# [11] = second compound 0.316 µM, first compound 0.0949 µM
# [12] = second compound 0.316 µM, first compound 0.3 µM
# [13] = second compound 1 µM, first compound 0.000949 µM
# [14] = second compound 1 µM, first compound 0.003 µM
# [15] = second compound 1 µM, first compound 0.00949 µM
# [16] = second compound 1 µM, first compound 0.03 µM
# [17] = second compound 1 µM, first compound 0.0949 µM
# [18] = second compound 1 µM, first compound 0.3 µM
# [19] = second compound 3.16 µM, first compound 0.000949 µM
# [20] = second compound 3.16 µM, first compound 0.003 µM
# [21] = second compound 3.16 µM, first compound 0.00949 µM
# [22] = second compound 3.16 µM, first compound 0.03 µM
# [23] = second compound 3.16 µM, first compound 0.0949 µM
# [24] = second compound 3.16 µM, first compound 0.3 µM
# [25] = second compound 10 µM, first compound 0.000949 µM
# [26] = second compound 10 µM, first compound 0.003 µM
# [27] = second compound 10 µM, first compound 0.00949 µM
# [28] = second compound 10 µM, first compound 0.03 µM
# [29] = second compound 10 µM, first compound 0.0949 µM
# [30] = second compound 10 µM, first compound 0.3 µM
structure (smiles),measurement,setting,value
CC(C)CC(NC(=O)C(Cc1ccccc1)NC(=O)c1cnccn1)B(O)O (stereo not given) + Cc1ccccc1N=Nc1ccc(NC(=O)c2ccnn2C)c(C)c1,IC50,second compound 0.1 µM,5.48 nM
same,IC50,second compound 0.316 µM,5.4 nM
same,IC50,second compound 1 µM,5.73 nM
same,IC50,second compound 3.16 µM,5.73 nM
same,IC50,second compound 10 µM,6.76 nM
same,"viability, T/C",[1],105%
same,"viability, T/C",[2],97%
same,"viability, T/C",[3],7.2%
same,"viability, T/C",[4],1.26%
same,"viability, T/C",[5],0.41%
same,"viability, T/C",[6],0.31%
same,"viability, T/C",[7],91.4%
same,"viability, T/C",[8],90.3%
same,"viability, T/C",[9],11.3%
same,"viability, T/C",[10],0.73%
same,"viability, T/C",[11],11.2%
same,"viability, T/C",[12],6.11%
same,"viability, T/C",[13],123%
same,"viability, T/C",[14],101%
same,"viability, T/C",[15],10.2%
same,"viability, T/C",[16],1.95%
same,"viability, T/C",[17],1.1%
same,"viability, T/C",[18],0.56%
same,"viability, T/C",[19],92.9%
same,"viability, T/C",[20],89.4%
same,"viability, T/C",[21],19.4%
same,"viability, T/C",[22],1.27%
same,"viability, T/C",[23],0.6%
same,"viability, T/C",[24],0.68%
same,"viability, T/C",[25],93.1%
same,"viability, T/C",[26],99.5%
same,"viability, T/C",[27],30.8%
same,"viability, T/C",[28],2.17%
same,"viability, T/C",[29],0.87%
same,"viability, T/C",[30],0.59%
CCc1c2c(nc3ccc(O)cc13)-c1cc3c(c(=O)n1C2)COC(=O)[C@]3(O)CC + Cc1ccccc1N=Nc1ccc(NC(=O)c2ccnn2C)c(C)c1,IC50,second compound 0.1 µM,300 nM
same,IC50,second compound 0.316 µM,67.1 nM
same,IC50,second compound 1 µM,210 nM
same,IC50,second compound 3.16 µM,> 300 nM
same,IC50,second compound 10 µM,78.8 nM
same,"viability, T/C",[1],72.5%
same,"viability, T/C",[2],99%
same,"viability, T/C",[3],64%
same,"viability, T/C",[4],56.2%
same,"viability, T/C",[5],47.7%
same,"viability, T/C",[6],54.7%
same,"viability, T/C",[7],90.9%
same,"viability, T/C",[8],85.4%
same,"viability, T/C",[9],72.4%
same,"viability, T/C",[10],54.2%
same,"viability, T/C",[11],46.4%
same,"viability, T/C",[12],48.7%
same,"viability, T/C",[13],81.7%
same,"viability, T/C",[14],74.3%
same,"viability, T/C",[15],72.5%
same,"viability, T/C",[16],55%
same,"viability, T/C",[17],59.6%
same,"viability, T/C",[18],46.5%
same,"viability, T/C",[19],79.7%
same,"viability, T/C",[20],85.6%
same,"viability, T/C",[21],77.1%
same,"viability, T/C",[22],63.6%
same,"viability, T/C",[23],54.3%
same,"viability, T/C",[24],52.7%
same,"viability, T/C",[25],82%
same,"viability, T/C",[26],82.7%
same,"viability, T/C",[27],83.9%
same,"viability, T/C",[28],59.6%
same,"viability, T/C",[29],47.5%
same,"viability, T/C",[30],48.9%
COc1cc(Nc2ncc3c(n2)-c2ccc(Cl)cc2C(c2c(F)cccc2OC)=NC3)ccc1C(=O)O + Cc1ccccc1N=Nc1ccc(NC(=O)c2ccnn2C)c(C)c1,IC50,second compound 0.1 µM,> 10000 nM
same,IC50,second compound 0.316 µM,> 10000 nM
same,IC50,second compound 1 µM,8760 nM
same,IC50,second compound 3.16 µM,> 10000 nM
same,IC50,second compound 10 µM,> 10000 nM
same,"viability, T/C","second compound 0.1 µM, first compound 0.0316 µM",73.8%
same,"viability, T/C","second compound 0.1 µM, first compound 0.1 µM",65.6%
same,"viability, T/C","second compound 0.1 µM, first compound 0.316 µM",77.2%
same,"viability, T/C","second compound 0.1 µM, first compound 1 µM",52.5%
same,"viability, T/C","second compound 0.1 µM, first compound 3.16 µM",61%
same,"viability, T/C","second compound 0.1 µM, first compound 10 µM",50.9%
same,"viability, T/C","second compound 0.316 µM, first compound 0.0316 µM",72.5%
same,"viability, T/C","second compound 0.316 µM, first compound 0.1 µM",67.1%
same,"viability, T/C","second compound 0.316 µM, first compound 0.316 µM",79.2%
same,"viability, T/C","second compound 0.316 µM, first compound 1 µM",65.9%
same,"viability, T/C","second compound 0.316 µM, first compound 3.16 µM",62.7%
same,"viability, T/C","second compound 0.316 µM, first compound 10 µM",53.2%
same,"viability, T/C","second compound 1 µM, first compound 0.0316 µM",81.8%
same,"viability, T/C","second compound 1 µM, first compound 0.1 µM",81%
same,"viability, T/C","second compound 1 µM, first compound 0.316 µM",74.4%
same,"viability, T/C","second compound 1 µM, first compound 1 µM",72%
same,"viability, T/C","second compound 1 µM, first compound 3.16 µM",85.5%
same,"viability, T/C","second compound 1 µM, first compound 10 µM",46.4%
same,"viability, T/C","second compound 3.16 µM, first compound 0.0316 µM",87.3%
same,"viability, T/C","second compound 3.16 µM, first compound 0.1 µM",72.5%
same,"viability, T/C","second compound 3.16 µM, first compound 0.316 µM",66%
same,"viability, T/C","second compound 3.16 µM, first compound 1 µM",57.9%
same,"viability, T/C","second compound 3.16 µM, first compound 3.16 µM",68.9%
same,"viability, T/C","second compound 3.16 µM, first compound 10 µM",60.2%
same,"viability, T/C","second compound 10 µM, first compound 0.0316 µM",65.3%
same,"viability, T/C","second compound 10 µM, first compound 0.1 µM",94.1%
same,"viability, T/C","second compound 10 µM, first compound 0.316 µM",65.7%
same,"viability, T/C","second compound 10 µM, first compound 1 µM",60.5%
same,"viability, T/C","second compound 10 µM, first compound 3.16 µM",75.8%
same,"viability, T/C","second compound 10 µM, first compound 10 µM",53.8%
